Results as given in patent US20230218577A1, “USE OF HEAT SHOCK PROTEIN INHIBITORS FOR THE TREATMENT OF NEURODEVELOPMENTAL DISORDERS” (The Children's Medical Center Corporation, priority 2020, published 2023).

Tested on: IGF-IRβ, pS6 in wild-type cortical neurons
Assay: Proteasomal inhibition experiment, Western blot in wild-type cortical neurons
Assay type: cell-based, rat
Conditions: 100 nM bortezomib with 4 μM 17-AGG
Procedure: Hippocampi and cortexes from 18-day-old rat embryos (Charles River CD1) were isolated under the microscope and collected in Hank's Balanced Salt Solution containing 10 mM MgCl2, 1 mM kynurenic acid, 10 mM HEPES and penicillin/streptomycin. After 5 min dissociation at 37° C. in 30 U/ml of papain, neurons were mechanically triturated and plated in Neurobasal (NB) medium containing B27 supplement, 2 mM L-glutamine, penicillin/streptomycin and primocin (NB/B27). Biochemical analysis was performed on cortical cultures plated at 1×10^6 cells/well onto six-well plates. Immunofluorescent analysis was performed on hippocampal cultures plated at 20×10^3 cells/well onto 96-well plates. All plates were coated with 20 μg/ml poly-D-lysine (PDL).
Stocks of drugs were freshly diluted in NB media before performing each experiment. The same amount of vehicle was used as vehicle-only control. For dose response curves serial dilutions were freshly made in NB media by a manual multichannel pipette using compound dilution plates.
Protein extracts were lysed in 1×SDS (22 mM Tris-HCl pH 6.8, 4% Glycerol, 0.8% SDS, 1.6% β-mercaptoethanol, bromphenol blue) sample buffer, heated to 95° C. for 5 min and stored frozen. Before being subjected to discontinuous gel electrophoresis, equal amounts of all protein lysates were verified by Coomassie gel staining. For immunoblotting, equal amounts of protein lysates were subjected to SDS-PAGE, transferred to Immobilon-P Millipore and incubated in LI-COR blocking solution at RT for 2 hrs. Primary and secondary antibodies were diluted in LI-COR blocking solution to the appropriate concentrations. LI-COR IRDye secondary antibodies were used. All images were acquired using the LI-COR Odyssey Classic imager and associated Image Studio Lite analysis software (version 5.2.5). Quantification of protein expression was performed by densitometry scans of immunoblots using LI-COR Odyssey imaging system.

Compound: CC(C)C[C@H](NC(=O)[C@H](Cc1ccccc1)NC(=O)c1cnccn1)B(O)O [BTZ, bortezomib]
- reduction in S6 phosphorylation caused by 17-AGG: prevented
- reduction of IGF-IRβ levels caused by 17-AGG: prevented
